Experimental data from ChEMBL document CHEMBL1142911, “Design and synthesis of pyridine-pyrazolopyridine-based inhibitors of protein kinase B/Akt” (Bioorg Med Chem, 2007).

Tests used:
MIA PaCa-2 = assay: Antiproliferative activity against MIA PaCa cells by MTT assay; type: functional, cell-based; settings: Homo sapiens
[1] = target: cAMP-dependent protein kinase (PKA) (Homo sapiens, UniProt P22694+P17612+P22612); assay: Inhibition of PKA; type: protein assay

| Structure (SMILES) | IC50 [1] [nM] | EC50 (MIA PaCa-2) [nM] |
| --- | --- | --- |
| N[C@H](COc1cncc(-c2cc3cn[nH]c3cc2[N+](=O)[O-])c1)Cc1c[nH]c2ccccc12 |  | 2940 |
| Nc1cc2[nH]nc(Cl)c2cc1-c1cncc(OC[C@@H](N)Cc2c[nH]c3ccccc23)c1 | 58 | 330 |
| N[C@H](COc1cncc(-c2ccc3[nH]nc(Cl)c3c2)c1)Cc1c[nH]c2ccccc12 | 6.8 | 380 |
| N[C@H](COc1cncc(-c2cc3cn[nH]c3cn2)c1)Cc1c[nH]c2ccccc12 |  | 1160 |
| N[C@H](COc1cncc(-c2cc3cn[nH]c3cn2)c1)Cc1ccccc1 |  | 1690 |
| N[C@H](COc1cncc(-c2cc3c(-c4ccccc4)n[nH]c3cn2)c1)Cc1ccccc1 | 371 | 584 |
| N[C@H](COc1cncc(-c2ccc3[nH]ncc3c2)c1)Cc1c[nH]c2ccccc12 |  | 820 |
| N[C@H](COc1cncc(-c2ccc3[nH]nc(C(F)(F)F)c3c2)c1)Cc1c[nH]c2ccccc12 | 16 | 1290 |
| Cc1n[nH]c2cnc(-c3cncc(OC[C@@H](N)Cc4c[nH]c5ccccc45)c3)cc12 | 15 | 41 |

The next lines start with results.

| IC50 [1] [nM] | Structure (SMILES) | EC50 (MIA PaCa-2) [nM] |
| --- | --- | --- |
| 46 | N[C@H](COc1cncc(-c2cc3c(Cl)n[nH]c3cn2)c1)Cc1ccccc1 |  |
| 32 | C=Cc1n[nH]c2cnc(-c3cncc(OC[C@@H](N)Cc4ccccc4)c3)cc12 | 660 |
| 274 | N[C@H](COc1cncc(-c2cc3c(-c4ccco4)n[nH]c3cn2)c1)Cc1ccccc1 | 1200 |
| 32 | Cc1n[nH]c2cnc(-c3cncc(OC[C@@H](N)Cc4ccccc4)c3)cc12 | 680 |
